Assay type in all cases: in vivo
Experiment [1] relates to Amaranthus retroflexus (AMARE). In words: Post-emergence herbicidal activity, AMARE. The settings on record: 7 days after treatment; for pest or weed control at 100 ppm: Amaranthus retroflexus, 168 h, Table 3a; for Post-emergence (100 ppm) AMARE: Table 3b. The procedure: (§1) Selected compounds of the invention were screened at 100 PPM against Amaranthus retroflexus (AMARE), Setaria italica (SETIT), and Echinochloa crus-galli (ECHCG). […]
(§2) Compounds were formulated in 25% Acetone, 1% Crop oil concentrate (COC-Agridex), 0.1% Tween-20, and 2.5% Ammonium sulphate (AMS). Three replicate pots were treated with each compound. Treatment consisting of the above formulation excluding active compound was applied as a treatment control (TC). Plants were treated with the test compound solution in a laboratory spray chamber fitted with 8003 flat fan nozzles calibrated to deliver 187-200 L ha^−1 at 269 kPa. Plants were placed back in the growth chamber and evaluated for % visual injury compared to TC 7 days after treatment (DAT). The data presented in Table 3 indicate a percentage control, where 100% control indicates complete inhibition of growth. […]

Experiment [2] deals with Setaria italica (SETIT). In words: Post-emergence herbicidal activity, SETIT. The note with it: 7 days after treatment; for pest or weed control at 100 ppm: Setaria italica, 168 h, Table 3a; for Post-emergence (100 ppm) SETIT: Table 3b. The procedure:
Selected compounds of the invention were screened at 100 PPM against Amaranthus retroflexus (AMARE), Setaria italica (SETIT), and Echinochloa crus-galli (ECHCG).
Accordingly, PPO susceptible weed seeds were sown in 5″×5″ pots by quadrant containing Miracle-Gro potting mix (Scotts Miracle-Gro Company, Marysville, OH. USA) and grown in a Conviron growth chamber with appropriate growth conditions (temperature of 26/22° C. with photoperiod 16/8 h light day/night and light intensity of 300 μmol m^−2 s^−1 supplemented by LED lamps). Relative humidity in the growth chamber was maintained at around 65%. Plants were grown until 2-4 leaf stage and thinned to 5-8 plants per quadrant per species.
(§3) Compounds were formulated in 25% Acetone, 1% Crop oil concentrate (COC-Agridex), 0.1% Tween-20, and 2.5% Ammonium sulphate (AMS). Three replicate pots were treated with each compound. Treatment consisting of the above formulation excluding active compound was applied as a treatment control (TC). Plants were treated with the test compound solution in a laboratory spray chamber fitted with 8003 flat fan nozzles calibrated to deliver 187-200 L ha^−1 at 269 kPa. Plants were placed back in the growth chamber and evaluated for % visual injury compared to TC 7 days after treatment (DAT). The data presented in Table 3 indicate a percentage control, where 100% control indicates complete inhibition of growth.
(§4) Selected compounds of the invention were screened at 100 PPM against Amaranthus retroflexus (AMARE), Echinochloa crus-galli (ECHCG), Kochia scoparia (KCHSC), and Setaria italica (SETIT).
(§5) Accordingly, PPO susceptible weed seeds were sown in 5″ 5″ pots by quadrant containing Miracle-Gro potting mix (Scotts Miracle-Gro Company, Marysville, OH, USA) and grown in a Conviron growth chamber with appropriate growth conditions (temperature of 26/22° C. with photoperiod 16/8 h light day/night and light intensity of […] supplemented by LED lamps). Relative humidity in the growth chamber was maintained at around 65%. Plants were grown until 2-4 leaf stage and thinned to 5-8 plants per quadrant per species.

The test system of experiment [3] is Echinochloa crus-galli (ECHCG). In words: Post-emergence herbicidal activity, ECHCG. The settings on record: 7 days after treatment; for pest or weed control at 100 ppm: Echinochloa crus-galli, 168 h, Table 3a; for Post-emergence (100 ppm) ECHCG: Table 3b. The procedure:
as §1, §2

For experiment [4], the system named is Kochia scoparia (KCHSC). Kind of experiment: Post-emergence herbicidal activity, KCHSC. The note with it: 7 days after treatment, Table 3b. The procedure: as §4, §5, §3
Experiment [5] has as its system Amaranthus retroflexus (AMARE). Kind of experiment: Pre-emergence herbicidal activity, AMARE. The note with it: 7 days after treatment. The source says:
(§6) Selected compounds of the invention were screened at 200 PPM against Amaranthus retroflexus (AMARE). Echinochloa crus-galli (ECHCG). Kochia scoparia (KCHSC), and Selaria italica (SETIT).
(§7) Accordingly, PPO susceptible weed seeds were planted in 5″×5″ pots by quadrant containing custom field soil mix (Sandy loam with 4.7% OM, pH 7.0) and covered with a fine layer of the same soil. Compounds were formulated in 25% Acetone, 1% Crop oil concentrate (COC-Agridex), 0.1% Tween-20, and 2.5% Ammonium sulphate (AMS). Three replicate pots were treated with each compound. Treatment consisting of the above formulation excluding active compound was applied as a treatment control (TC). Pots were treated with the test compound solution in a laboratory spray chamber fitted with 8003 flat fan nozzles calibrated to deliver 187-200 L ha^−1 at 269 kPa. Compound was incorporated into the soil by simulating rainfall equivalent to 0.2 mm using the same track sprayer. Subsequently, pots were irrigated from the bottom until assessed for % growth and germination inhibition. Pots were placed back in the growth chamber and evaluated for % growth and germination inhibition compared to TC 7 days after treatment (DAT). Growth conditions are similar to the ones mentioned in POST emergence assay.
(§8) The data presented in Table 4 indicate a percentage control, where 100% control indicates complete inhibition of growth.

Experiment [6] deals with Kochia scoparia (KCHSC). Kind of experiment: Pre-emergence herbicidal activity, KCHSC. The settings on record: 7 days after treatment.
Text: as §6, §7, §8

Experiment [7] has as its system Setaria italica (SETIT). Kind of experiment: Pre-emergence herbicidal activity, SETIT. The settings on record: 7 days after treatment.
Text: as §6, §7, §8

Experiment [8] has as its system Echinochloa crus-galli (ECHCG). In words: Pre-emergence herbicidal activity, ECHCG. The settings on record: 7 days after treatment.
Text: as §6, §7, §8

As for `COC(=O)[C@@H](C)N1C(=O)C(F)(F)Oc2cc(F)c(-c3c(F)c(F)c(F)c(F)c3F)cc21` [Compound 8, methyl (R)-2-(2,2,7-trifluoro-3-oxo-6-(perfluorophenyl)-2,3-dihydro-4H-benzo[b][1,4]oxazin-4-yl)propanoate], the values for the pest or weed control at 100 ppm in experiment [1], in experiment [2] and in experiment [3] were 80%, 75% and 45%, respectively.
`COC(=O)[C@@H](C)N1C(=O)C(F)(F)Oc2cc(F)c(-c3c(F)cc(F)c(F)c3F)cc21` [Compound 77, methyl (2R)-2-(2,2,7-trifluoro-3-oxo-6-(2,3,4,6-tetrafluorophenyl)-2,3-dihydro-4H-benzo[b][1,4]oxazin-4-yl)propanoate]: in experiment [1], the “Post-emergence (100 ppm) AMARE” value was determined as 100% and the pest or weed control at 100 ppm was determined as 100%. In experiment [2], the “Post-emergence (100 ppm) SETIT” value is on record as 98% and the pest or weed control at 100 ppm is 98%. Moreover, in experiment [3], the “Post-emergence (100 ppm) ECHCG” value came to 88% and the pest or weed control at 100 ppm was determined as 88%. Besides, the “Post-emergence (100 ppm) KCHSC” value in experiment [4] worked out at 100%. Also, the “Pre-emergence (200 ppm) AMARE” value in experiment [5] came to 100%. Besides, in experiment [6], the “Pre-emergence (200 ppm) KCHSC” value came out at 0%. For the same molecule, in experiment [7], the “Pre-emergence (200 ppm) SETIT” value was found to be 70%. Also, in experiment [8], the “Pre-emergence (200 ppm) ECHCG” value worked out at 3%.
Consider `COC(=O)C1CN(C(=O)CN2C(=O)C(F)(F)Oc3cc(F)c(-c4c(F)c(F)c(F)c(F)c4F)cc32)C1` [Compound 86, methyl 1-(2-(2,2,7-trifluoro-3-oxo-6-(perfluorophenyl)-2,3-dihydro-4H-benzo[b][1,4]oxazin-4-yl)acetyl)azetidine-3-carboxylate], for which the “Post-emergence (100 ppm) AMARE” value in experiment [1] was determined as 100%. Also, in experiment [2], the “Post-emergence (100 ppm) SETIT” value worked out at 100%. Also, the “Post-emergence (100 ppm) ECHCG” value in experiment [3] worked out at 69%. Further, in experiment [4], the “Post-emergence (100 ppm) KCHSC” value is recorded as 11%. The “Pre-emergence (200 ppm) AMARE” value in experiment [5] is listed as 68%. Besides, the “Pre-emergence (200 ppm) KCHSC” value in experiment [6] turned out to be 27%. Moreover, the “Pre-emergence (200 ppm) SETIT” value in experiment [7] came to 7%. Besides, the “Pre-emergence (200 ppm) ECHCG” value in experiment [8] is listed as 5%.
In the case of `COC(=O)[C@@H]1CCCN1C(=O)CN1C(=O)C(F)(F)Oc2cc(F)c(-c3c(F)c(F)c(F)c(F)c3F)cc21` [Compound 74, methyl (2-(2,2,7-trifluoro-3-oxo-6-(perfluorophenyl)-2,3-dihydro-4H-benzo[b][1,4]oxazin-4-yl)acetyl)-L-prolinate], the pest or weed control at 100 ppm in experiment [1] amounted to 100%; in experiment [2], 100%; in experiment [3] it was 33%.
For `CN(CC(=O)O)C(=O)CN1C(=O)C(F)(F)Oc2cc(F)c(-c3c(F)c(F)c(F)c(F)c3F)cc21` [Compound 85, N-methyl-N-(2-(2,2,7-trifluoro-3-oxo-6-(perfluorophenyl)-2,3-dihydro-4H-benzo[b][1,4]oxazin-4-yl)acetyl)glycine], the values for the pest or weed control at 100 ppm in experiment [1], in experiment [2] and in experiment [3] were 100%, 88% and 25%, respectively.
For the molecule `COC(=O)[C@H](OC)N1C(=O)C(F)(F)Oc2cc(F)c(-c3c(F)c(F)c(F)c(F)c3F)cc21` [Compound 185, methyl (S)-2-methoxy-2-(2,2,7-trifluoro-3-oxo-6-(perfluorophenyl)-2,3-dihydro-4H-benzo[b][1,4]oxazin-4-yl)acetate], the “Post-emergence (100 ppm) AMARE” value in experiment [1] was determined as 100%. The “Post-emergence (100 ppm) SETIT” value in experiment [2] is 100%. Further, the “Post-emergence (100 ppm) ECHCG” value in experiment [3] came to 50%. Moreover, in experiment [4], the “Post-emergence (100 ppm) KCHSC” value came to 100%. Besides, the “Pre-emergence (200 ppm) AMARE” value in experiment [5] is listed as 100%. Besides, the “Pre-emergence (200 ppm) KCHSC” value in experiment [6] was 83%. Further, the “Pre-emergence (200 ppm) SETIT” value in experiment [7] was found to be 100%. Further, the “Pre-emergence (200 ppm) ECHCG” value in experiment [8] was 43%.
Consider `C[C@@H](C(=O)O)N1C(=O)C(F)(F)Oc2cc(F)c(-c3c(F)cc(F)c(F)c3F)cc21` [Compound 78, (2S)-2-(2,2,7-trifluoro-3-oxo-6-(2,3,4,6-tetrafluorophenyl)-2,3-dihydro-4H-benzo[b][1,4]oxazin-4-yl)propanoic acid], for which, in experiment [1], the “Post-emergence (100 ppm) AMARE” value is 100% and the pest or weed control at 100 ppm turned out to be 100%. Besides, in experiment [2], the “Post-emergence (100 ppm) SETIT” value is reported as 100% and the pest or weed control at 100 ppm is 100%. In experiment [3], the “Post-emergence (100 ppm) ECHCG” value was 70% and the pest or weed control at 100 ppm is 70%. Further, the “Post-emergence (100 ppm) KCHSC” value in experiment [4] was determined as 93%. For the same molecule, the “Pre-emergence (200 ppm) AMARE” value in experiment [5] was 100%. Also, the “Pre-emergence (200 ppm) KCHSC” value in experiment [6] was 60%. In addition, the “Pre-emergence (200 ppm) SETIT” value in experiment [7] is 18%. Also, in experiment [8], the “Pre-emergence (200 ppm) ECHCG” value stood at 5%.
In the case of `COC(=O)CCNC(=O)[C@H](C)N1C(=O)C(F)(F)Oc2cc(F)c(-c3c(F)c(F)c(F)c(F)c3F)cc21` [Compound 130, methyl (S)-3-(2-(2,2,7-trifluoro-3-oxo-6-(perfluorophenyl)-2,3-dihydro-4H-benzo[b][1,4]oxazin-4-yl)propanamido)propanoate], the pest or weed control at 100 ppm was 100% in experiment [1], 100% in experiment [2] and 92% in experiment [3].
Consider `COC(=O)CCNC(=O)[C@@H](C)N1C(=O)C(F)(F)Oc2cc(F)c(-c3c(F)c(F)c(F)c(F)c3F)cc21` [Compound 131, methyl (R)-3-(2-(2,2,7-trifluoro-3-oxo-6-(perfluorophenyl)-2,3-dihydro-4H-benzo[b][1,4]oxazin-4-yl)propanamido)propanoate], for which the pest or weed control at 100 ppm in experiment [1] was 100%; in experiment [2], 83%; in experiment [3] it was 15%.
The like results for `C[C@@H](C(=O)O)N1C(=O)C(F)(F)Oc2cc(F)c(-c3c(F)c(F)c(F)c(F)c3F)cc21` [Compound 11, (S)-2-(2,2,7-trifluoro-3-oxo-6-(perfluorophenyl)-2,3-dihydro-4H-benzo[b][1,4]oxazin-4-yl)propanoic acid] were, in that order, 95%, 96% and 83%.
The like results for `COC(=O)CCN(C)C(=O)[C@H](C)N1C(=O)C(F)(F)Oc2cc(F)c(-c3c(F)c(F)c(F)c(F)c3F)cc21` [Compound 132, methyl (S)-3-(N-methyl-2-(2,2,7-trifluoro-3-oxo-6-(perfluorophenyl)-2,3-dihydro-4H-benzo[b][1,4]oxazin-4-yl)propanamido)propanoate] were, in that order, 100%, 100% and 70%.

What is called pest or weed control is how far the test organism was held down. Lower therefore signals weak suppression.
